Drawing on ChEMBL document CHEMBL5291721, “A preclinical secondary pharmacology resource illuminates target-adverse drug reaction associations of marketed drugs” (Nat Commun, 2023), this text covers AC50 for 11 compounds.

One may read the AC50 as the midpoint of the concentration-response curve, whichever way the signal moves.

Among the targets are Histamine H3 receptor (Homo sapiens, UniProt Q9Y5N1); D(3) dopamine receptor (Homo sapiens, UniProt P35462); Mu-type opioid receptor (Homo sapiens, UniProt P35372).
Experiment [1] deals with Sodium-dependent serotonin transporter (Homo sapiens, UniProt P31645).
Sequence of Sodium-dependent serotonin transporter (P31645 whole entry): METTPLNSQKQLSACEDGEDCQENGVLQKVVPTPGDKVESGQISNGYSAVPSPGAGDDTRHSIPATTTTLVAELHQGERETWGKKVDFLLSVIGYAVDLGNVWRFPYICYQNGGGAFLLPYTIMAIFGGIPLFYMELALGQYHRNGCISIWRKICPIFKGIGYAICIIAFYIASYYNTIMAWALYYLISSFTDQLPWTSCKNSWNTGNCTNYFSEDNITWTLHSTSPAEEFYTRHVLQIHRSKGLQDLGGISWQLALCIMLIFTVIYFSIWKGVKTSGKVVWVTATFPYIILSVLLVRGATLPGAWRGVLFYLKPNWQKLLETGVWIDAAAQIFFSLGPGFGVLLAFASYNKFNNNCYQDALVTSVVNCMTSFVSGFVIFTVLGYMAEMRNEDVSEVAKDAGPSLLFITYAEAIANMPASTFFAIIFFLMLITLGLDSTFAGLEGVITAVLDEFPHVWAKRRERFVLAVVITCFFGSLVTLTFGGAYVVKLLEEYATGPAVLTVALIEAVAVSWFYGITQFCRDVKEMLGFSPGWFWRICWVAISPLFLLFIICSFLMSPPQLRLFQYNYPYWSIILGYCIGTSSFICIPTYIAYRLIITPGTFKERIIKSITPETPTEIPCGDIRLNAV
The target in a further experiment is T1, Progesterone receptor (Homo sapiens, UniProt P06401).
T1 sequence (P06401 whole entry): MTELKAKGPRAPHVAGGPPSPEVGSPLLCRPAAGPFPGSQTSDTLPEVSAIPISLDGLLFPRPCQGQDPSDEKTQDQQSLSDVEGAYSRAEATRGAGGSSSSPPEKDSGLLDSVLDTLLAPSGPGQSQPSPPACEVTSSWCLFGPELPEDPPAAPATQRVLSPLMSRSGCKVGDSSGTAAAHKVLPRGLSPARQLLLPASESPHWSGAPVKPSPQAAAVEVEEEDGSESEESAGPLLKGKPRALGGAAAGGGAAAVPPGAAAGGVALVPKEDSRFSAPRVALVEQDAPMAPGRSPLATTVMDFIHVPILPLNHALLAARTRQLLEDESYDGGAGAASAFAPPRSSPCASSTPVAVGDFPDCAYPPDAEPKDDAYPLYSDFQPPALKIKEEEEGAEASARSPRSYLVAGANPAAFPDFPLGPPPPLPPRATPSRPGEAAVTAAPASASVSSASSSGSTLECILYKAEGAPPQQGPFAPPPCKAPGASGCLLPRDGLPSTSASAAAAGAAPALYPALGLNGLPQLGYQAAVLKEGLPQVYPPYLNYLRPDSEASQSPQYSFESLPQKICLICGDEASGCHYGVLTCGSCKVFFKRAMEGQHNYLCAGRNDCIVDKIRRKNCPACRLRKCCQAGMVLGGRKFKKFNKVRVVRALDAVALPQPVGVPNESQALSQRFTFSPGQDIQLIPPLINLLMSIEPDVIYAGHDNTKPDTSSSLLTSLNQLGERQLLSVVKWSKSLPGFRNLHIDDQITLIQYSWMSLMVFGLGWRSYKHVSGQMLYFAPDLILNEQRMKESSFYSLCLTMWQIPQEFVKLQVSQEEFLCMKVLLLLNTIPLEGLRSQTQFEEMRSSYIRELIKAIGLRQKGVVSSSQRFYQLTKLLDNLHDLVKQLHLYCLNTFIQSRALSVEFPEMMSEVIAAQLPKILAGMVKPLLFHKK

Experiment [2] has as its target Sodium-dependent dopamine transporter (Homo sapiens, UniProt Q01959).
For experiment [3], the target named is T2, Prostaglandin G/H synthase 1 (Homo sapiens, UniProt P23219). The format is functional.
T2 sequence (P23219 whole entry): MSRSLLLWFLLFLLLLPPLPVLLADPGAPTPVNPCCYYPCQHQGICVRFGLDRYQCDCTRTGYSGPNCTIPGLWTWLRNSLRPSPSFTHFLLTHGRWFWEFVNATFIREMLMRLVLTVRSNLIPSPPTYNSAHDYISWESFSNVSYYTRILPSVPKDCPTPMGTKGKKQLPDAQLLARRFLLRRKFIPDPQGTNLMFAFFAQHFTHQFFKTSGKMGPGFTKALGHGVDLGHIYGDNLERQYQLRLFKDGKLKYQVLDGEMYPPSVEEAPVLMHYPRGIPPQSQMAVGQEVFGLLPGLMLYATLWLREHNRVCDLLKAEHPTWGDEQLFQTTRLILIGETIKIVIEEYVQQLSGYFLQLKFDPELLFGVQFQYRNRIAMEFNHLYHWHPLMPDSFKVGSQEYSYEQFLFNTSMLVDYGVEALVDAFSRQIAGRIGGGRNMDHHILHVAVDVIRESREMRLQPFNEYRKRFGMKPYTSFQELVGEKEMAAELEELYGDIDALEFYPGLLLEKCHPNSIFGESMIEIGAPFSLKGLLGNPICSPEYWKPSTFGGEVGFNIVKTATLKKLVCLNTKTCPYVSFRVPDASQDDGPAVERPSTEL
Experiment [4] concerns the target Sodium-dependent noradrenaline transporter (Homo sapiens, UniProt P23975).
For experiment [5], the target named is T3, Amine oxidase [flavin-containing] A (Homo sapiens, UniProt P21397).
T3 sequence (P21397 whole entry): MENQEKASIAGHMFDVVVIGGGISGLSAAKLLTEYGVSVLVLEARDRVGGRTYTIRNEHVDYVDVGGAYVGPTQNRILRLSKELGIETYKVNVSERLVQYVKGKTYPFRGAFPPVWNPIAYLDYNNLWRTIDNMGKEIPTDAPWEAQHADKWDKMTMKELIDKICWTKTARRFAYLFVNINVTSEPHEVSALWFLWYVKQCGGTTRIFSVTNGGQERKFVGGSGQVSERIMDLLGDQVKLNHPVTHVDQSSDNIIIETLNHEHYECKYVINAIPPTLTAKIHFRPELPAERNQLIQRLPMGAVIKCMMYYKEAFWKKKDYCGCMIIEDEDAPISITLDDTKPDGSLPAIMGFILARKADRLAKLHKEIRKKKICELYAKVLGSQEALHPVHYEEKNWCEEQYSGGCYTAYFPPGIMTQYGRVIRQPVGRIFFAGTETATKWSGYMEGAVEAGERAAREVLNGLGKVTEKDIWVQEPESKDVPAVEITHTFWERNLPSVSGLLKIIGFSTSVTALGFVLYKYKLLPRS
It is filed as functional.

Experiment [6] has as its target cGMP-inhibited 3',5'-cyclic phosphodiesterase 3A (Homo sapiens, UniProt Q14432). The format is functional.
Experiment [7] concerns the target Voltage-gated inwardly rectifying potassium channel KCNH2 (Homo sapiens, UniProt Q12809). The format is functional. To be noted: read-out: AC50.
Experiment [8] addresses T2, Prostaglandin G/H synthase 1. It is filed as functional. This is another data set of the same source.
The target of a further experiment is T4, Estrogen receptor (Homo sapiens, UniProt P03372).
T4 sequence (P03372 whole entry): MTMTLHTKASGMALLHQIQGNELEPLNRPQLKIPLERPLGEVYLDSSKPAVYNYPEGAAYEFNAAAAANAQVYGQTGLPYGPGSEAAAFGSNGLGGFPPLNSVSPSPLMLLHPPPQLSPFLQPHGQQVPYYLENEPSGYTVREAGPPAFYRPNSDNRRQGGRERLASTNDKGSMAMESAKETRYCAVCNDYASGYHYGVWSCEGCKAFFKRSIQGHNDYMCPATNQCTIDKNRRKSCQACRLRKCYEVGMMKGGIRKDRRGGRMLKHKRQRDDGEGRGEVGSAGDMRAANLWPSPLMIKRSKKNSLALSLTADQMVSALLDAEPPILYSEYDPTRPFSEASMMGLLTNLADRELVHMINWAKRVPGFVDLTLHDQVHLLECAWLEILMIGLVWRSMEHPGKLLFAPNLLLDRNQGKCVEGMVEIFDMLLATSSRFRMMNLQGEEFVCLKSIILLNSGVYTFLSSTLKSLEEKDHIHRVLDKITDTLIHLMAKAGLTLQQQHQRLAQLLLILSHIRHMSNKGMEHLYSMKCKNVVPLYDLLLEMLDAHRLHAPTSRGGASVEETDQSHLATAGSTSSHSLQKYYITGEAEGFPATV
Also: assay procedure not described here.

Sequence of D(3) dopamine receptor (P35462 whole entry): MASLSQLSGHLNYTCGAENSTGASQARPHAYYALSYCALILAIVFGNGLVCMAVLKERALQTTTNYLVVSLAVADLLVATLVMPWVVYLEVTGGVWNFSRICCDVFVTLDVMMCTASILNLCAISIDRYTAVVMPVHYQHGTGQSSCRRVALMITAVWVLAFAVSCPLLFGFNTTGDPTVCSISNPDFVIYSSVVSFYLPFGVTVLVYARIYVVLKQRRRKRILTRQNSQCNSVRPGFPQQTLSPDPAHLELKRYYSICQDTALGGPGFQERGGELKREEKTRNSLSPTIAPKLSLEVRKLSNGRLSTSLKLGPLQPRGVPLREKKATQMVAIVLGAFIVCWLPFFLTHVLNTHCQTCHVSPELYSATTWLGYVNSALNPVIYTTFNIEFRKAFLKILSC
Sequence of Sodium-dependent noradrenaline transporter (P23975 whole entry): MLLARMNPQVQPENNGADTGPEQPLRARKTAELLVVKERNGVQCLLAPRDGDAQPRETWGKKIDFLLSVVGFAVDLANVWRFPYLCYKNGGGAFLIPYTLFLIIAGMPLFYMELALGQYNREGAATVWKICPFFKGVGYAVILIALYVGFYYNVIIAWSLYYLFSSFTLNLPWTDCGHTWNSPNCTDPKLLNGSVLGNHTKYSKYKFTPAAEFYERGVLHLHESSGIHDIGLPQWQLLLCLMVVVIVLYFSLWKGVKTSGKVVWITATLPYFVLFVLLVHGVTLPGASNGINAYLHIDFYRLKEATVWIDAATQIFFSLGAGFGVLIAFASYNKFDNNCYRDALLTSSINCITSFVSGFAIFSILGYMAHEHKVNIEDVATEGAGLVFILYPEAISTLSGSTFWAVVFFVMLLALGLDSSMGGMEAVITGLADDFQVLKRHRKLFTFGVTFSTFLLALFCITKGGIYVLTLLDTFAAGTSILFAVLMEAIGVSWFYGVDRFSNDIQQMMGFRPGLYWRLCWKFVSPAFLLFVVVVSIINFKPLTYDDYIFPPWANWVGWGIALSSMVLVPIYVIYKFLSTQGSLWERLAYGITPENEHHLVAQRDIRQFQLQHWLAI
Sequence of Mu-type opioid receptor (P35372 whole entry): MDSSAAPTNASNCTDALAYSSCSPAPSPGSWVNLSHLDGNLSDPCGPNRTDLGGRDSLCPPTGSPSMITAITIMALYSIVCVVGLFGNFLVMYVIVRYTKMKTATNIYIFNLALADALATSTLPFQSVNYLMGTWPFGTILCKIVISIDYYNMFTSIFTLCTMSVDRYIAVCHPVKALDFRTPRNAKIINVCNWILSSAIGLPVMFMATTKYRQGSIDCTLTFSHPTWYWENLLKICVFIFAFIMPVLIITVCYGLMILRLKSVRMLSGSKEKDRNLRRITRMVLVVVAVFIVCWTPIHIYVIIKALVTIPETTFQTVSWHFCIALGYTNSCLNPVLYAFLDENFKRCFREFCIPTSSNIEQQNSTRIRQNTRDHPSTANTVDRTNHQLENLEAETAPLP
Sequence of cGMP-inhibited 3',5'-cyclic phosphodiesterase 3A (Q14432 whole entry): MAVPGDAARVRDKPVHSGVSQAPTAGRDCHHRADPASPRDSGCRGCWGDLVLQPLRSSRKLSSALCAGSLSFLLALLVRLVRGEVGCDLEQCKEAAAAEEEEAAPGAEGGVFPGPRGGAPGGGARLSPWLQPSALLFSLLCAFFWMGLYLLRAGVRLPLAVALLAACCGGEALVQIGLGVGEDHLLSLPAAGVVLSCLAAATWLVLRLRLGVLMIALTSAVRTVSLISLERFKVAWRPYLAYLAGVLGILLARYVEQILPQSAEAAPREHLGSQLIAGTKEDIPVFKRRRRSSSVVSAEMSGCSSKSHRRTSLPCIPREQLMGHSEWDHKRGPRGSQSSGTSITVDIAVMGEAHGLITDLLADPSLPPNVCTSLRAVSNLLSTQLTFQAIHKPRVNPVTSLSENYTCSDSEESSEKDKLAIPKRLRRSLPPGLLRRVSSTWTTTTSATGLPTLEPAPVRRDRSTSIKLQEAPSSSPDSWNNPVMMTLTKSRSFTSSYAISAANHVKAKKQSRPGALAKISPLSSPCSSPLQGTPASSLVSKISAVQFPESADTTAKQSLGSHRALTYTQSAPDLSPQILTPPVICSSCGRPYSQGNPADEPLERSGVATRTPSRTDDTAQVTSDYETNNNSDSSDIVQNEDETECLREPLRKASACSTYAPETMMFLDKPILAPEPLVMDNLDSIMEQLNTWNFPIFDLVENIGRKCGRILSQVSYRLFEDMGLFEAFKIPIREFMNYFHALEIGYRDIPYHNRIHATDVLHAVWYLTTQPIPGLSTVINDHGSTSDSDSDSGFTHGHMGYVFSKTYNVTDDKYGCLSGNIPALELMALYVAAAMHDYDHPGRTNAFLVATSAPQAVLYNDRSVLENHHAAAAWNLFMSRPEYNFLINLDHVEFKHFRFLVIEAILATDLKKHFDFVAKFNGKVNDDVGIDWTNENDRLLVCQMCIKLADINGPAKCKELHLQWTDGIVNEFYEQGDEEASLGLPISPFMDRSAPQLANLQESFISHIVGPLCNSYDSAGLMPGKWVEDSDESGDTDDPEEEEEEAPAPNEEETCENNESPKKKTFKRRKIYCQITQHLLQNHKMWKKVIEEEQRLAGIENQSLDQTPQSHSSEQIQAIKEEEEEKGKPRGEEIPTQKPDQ
Sequence of Voltage-gated inwardly rectifying potassium channel KCNH2 (Q12809 whole entry): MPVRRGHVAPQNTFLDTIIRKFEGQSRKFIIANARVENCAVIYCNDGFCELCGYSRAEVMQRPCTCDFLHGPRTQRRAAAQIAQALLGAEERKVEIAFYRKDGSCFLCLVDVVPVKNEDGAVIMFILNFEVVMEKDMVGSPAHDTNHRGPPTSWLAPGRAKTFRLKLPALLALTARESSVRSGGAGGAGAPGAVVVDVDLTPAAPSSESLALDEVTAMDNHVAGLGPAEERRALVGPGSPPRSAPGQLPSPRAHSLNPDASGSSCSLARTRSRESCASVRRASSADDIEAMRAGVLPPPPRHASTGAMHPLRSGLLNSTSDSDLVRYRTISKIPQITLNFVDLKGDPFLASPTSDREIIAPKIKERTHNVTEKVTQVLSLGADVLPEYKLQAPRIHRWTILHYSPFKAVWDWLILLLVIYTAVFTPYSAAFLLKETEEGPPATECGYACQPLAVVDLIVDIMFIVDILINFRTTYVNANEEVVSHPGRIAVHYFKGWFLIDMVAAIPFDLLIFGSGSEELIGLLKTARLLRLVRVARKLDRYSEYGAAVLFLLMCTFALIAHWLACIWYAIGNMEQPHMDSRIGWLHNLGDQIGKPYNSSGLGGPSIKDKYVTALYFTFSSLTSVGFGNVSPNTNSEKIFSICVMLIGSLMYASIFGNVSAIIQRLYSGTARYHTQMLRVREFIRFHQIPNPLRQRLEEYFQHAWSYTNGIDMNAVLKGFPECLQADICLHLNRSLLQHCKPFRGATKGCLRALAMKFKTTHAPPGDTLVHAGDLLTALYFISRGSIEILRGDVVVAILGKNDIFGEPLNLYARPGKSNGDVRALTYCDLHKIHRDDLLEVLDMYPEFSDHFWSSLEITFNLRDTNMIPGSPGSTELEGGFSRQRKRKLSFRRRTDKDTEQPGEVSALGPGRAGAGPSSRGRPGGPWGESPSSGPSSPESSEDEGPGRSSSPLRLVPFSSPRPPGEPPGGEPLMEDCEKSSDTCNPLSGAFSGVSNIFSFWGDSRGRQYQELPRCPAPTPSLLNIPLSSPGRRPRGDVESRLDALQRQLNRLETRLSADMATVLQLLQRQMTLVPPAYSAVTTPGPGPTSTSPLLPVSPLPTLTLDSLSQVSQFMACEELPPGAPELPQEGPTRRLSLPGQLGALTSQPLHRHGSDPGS

`CC(=O)OCC[N+](C)(C)C` [ACETYLCHOLINE]: the AC50 (at Histamine H3 receptor; in [1]; at Progesterone receptor; in experiment [2]; in [3]; in [4]) was more than 30 µM throughout. In addition, the AC50 (in [5]; in experiment [6]; in [7]; at D(3) dopamine receptor; at Mu-type opioid receptor; in experiment [8]) was more than 30 µM each time.
Take `C[C@H](N)C(=O)O` [ALANINE]: the half-maximal activity concentration (AC50) (on Histamine H3 receptor; in experiment [1]; on Progesterone receptor; in experiment [2]; in [3]; in experiment [4]) was more than 30 µM each time. The AC50 (in experiment [5]; in experiment [6]; in experiment [7]; at D(3) dopamine receptor; on Mu-type opioid receptor; in [8]) was more than 30 µM each time.
For `O=C1c2c(O)cccc2Cc2cccc(O)c21` [ANTHRALIN], the AC50 on Histamine H3 receptor is 28.9 µM; in [1] it was more than 3 µM; at Progesterone receptor, more than 30 µM; in [2], more than 3 µM; in experiment [3] it was 0.875 µM; in experiment [4], more than 3 µM. For the same compound, the AC50 is more than 30 µM in experiment [5]; more than 30 µM in experiment [6]; more than 1 µM in experiment [7]; more than 30 µM at D(3) dopamine receptor; more than 30 µM at Mu-type opioid receptor; 14 µM in experiment [8].
On to `C[C@@H](O)[C@H]1C(=O)N2C(C(=O)[O-])=C(SC3Cn4cnc[n+]4C3)[C@H](C)[C@H]12` (some centres not stated) [BIAPENEM], for which the AC50 (at Histamine H3 receptor; in [1]; on Progesterone receptor; in experiment [2]; in experiment [3]; in experiment [4]) was more than 30 µM in each case. For the same compound, the AC50 (in experiment [5]; in experiment [6]; in [7]; on D(3) dopamine receptor; at Mu-type opioid receptor; in experiment [8]) was more than 30 µM throughout.
On to `CCCCOc1ccc(CC(=O)NO)cc1` [BUFEXAMAC], for which the AC50 (on Histamine H3 receptor; in experiment [1]; at Progesterone receptor; in experiment [2]; in experiment [3]; in experiment [4]) was more than 30 µM in each case. Also, the AC50 (in [5]; in [6]; in experiment [7]; at D(3) dopamine receptor; on Mu-type opioid receptor; in experiment [8]) was more than 30 µM in each case.
Consider `Oc1c(I)cc(Cl)c2cccnc12` [CLIOQUINOL], for which the half-maximal activity concentration (AC50) on Histamine H3 receptor is more than 30 µM; in experiment [1] it was more than 30 µM; on Progesterone receptor, more than 30 µM; in experiment [2], more than 30 µM; in experiment [3] it was more than 30 µM; in [4], 2.79 µM. Also, the AC50 in [5] is more than 30 µM; in experiment [6] it was more than 30 µM; in experiment [7], more than 30 µM; at D(3) dopamine receptor, more than 10 µM; on Mu-type opioid receptor, more than 30 µM; in experiment [8], more than 30 µM.
With `Cc1onc(-c2c(Cl)cccc2Cl)c1C(=O)N[C@@H]1C(=O)N2[C@@H]1SC(C)(C)[C@@H]2C(=O)O` [DICLOXACILLIN], the AC50 (on Histamine H3 receptor; in experiment [1]; on Progesterone receptor; in [2]; in experiment [3]; in experiment [4]) was more than 30 µM in each case. Moreover, the AC50 (in [5]; in experiment [6]; in experiment [7]; on D(3) dopamine receptor; on Mu-type opioid receptor; in experiment [8]) was more than 30 µM throughout.
Take `CCCCC/C=C\C/C=C\C/C=C\CCCCC(=O)O` [GAMOLENIC ACID]: the AC50 was more than 30 µM at Histamine H3 receptor; more than 30 µM in [1]; more than 30 µM on Progesterone receptor; more than 30 µM in experiment [2]; 4.91 µM in experiment [3]; more than 30 µM in [4]. The AC50 is more than 30 µM in [5]; more than 30 µM in experiment [6]; more than 30 µM in experiment [7]; more than 30 µM on D(3) dopamine receptor; more than 30 µM at Mu-type opioid receptor; 11.6 µM in experiment [8].
For the compound `CC[N+](C)(CC)CCOC(=O)C1c2ccccc2Oc2ccccc21` [METHANTHELINE], the AC50 (on Histamine H3 receptor; in [1]; on Progesterone receptor; in experiment [2]; in experiment [3]; in [4]) was more than 30 µM each time. Also, the AC50 was more than 30 µM in experiment [5]; more than 30 µM in experiment [6]; 11 µM in experiment [7]; more than 30 µM on D(3) dopamine receptor; more than 30 µM on Mu-type opioid receptor; more than 30 µM in [8].
As for `CCN(CC)CCOC(=O)C(Cc1cccc2ccccc12)CC1CCCO1` (configuration not stated) [NAFRONYL], the AC50 was more than 30 µM at Histamine H3 receptor; 28.4 µM in experiment [1]; more than 30 µM at Progesterone receptor; more than 30 µM in experiment [2]; more than 30 µM in experiment [3]; more than 30 µM in [4]. For the same compound, the AC50 in [5] is more than 30 µM; in experiment [6], more than 30 µM; in experiment [7], 6.9 µM; at D(3) dopamine receptor it was 10.1 µM; on Mu-type opioid receptor it was 7.16 µM; in experiment [8], more than 30 µM.
Turning to `CCOC(=O)[C@H](CCc1ccccc1)N[C@H]1CS[C@H](c2cccs2)CN(CC(=O)O)C1=O` [TEMOCAPRIL], the AC50 (at Histamine H3 receptor; in experiment [1]; at Estrogen receptor; in experiment [2]; in [3]; in experiment [4]) was more than 30 µM throughout. Further, the AC50 (in [5]; in [6]; in experiment [7]; at D(3) dopamine receptor; at Mu-type opioid receptor; in experiment [8]) was more than 30 µM each time.
